In series [1] the test system is Bordetella bronchiseptica. In words: standard agar-dilution test. It counts as cell-based. The source says: (§1) A-40104 factor A is an especially useful antibacterial agent. The minimal inhibitory concentrations (MIC's) at which A-40104 factor A inhibits selected bacteria, as determined by standard agar-dilution tests, are summarized in Table III.
Series [2] relates to Staphylococcus aureus 3055. In words: standard agar-dilution test. The series is classed as cell-based.
Description: as §1

Series [3] has as its system Staphylococcus aureus 3074. Description: standard agar-dilution test. It counts as cell-based.
Description: as §1

The test system of another series is Streptococcus faecalis. In words: standard agar-dilution test. Particulars: Enterococcus faecalis. The series is classed as cell-based.
Description: as §1

The subject of series [4] is Neisseria gonorrhea Sand. In words: gradient-plate agar-dilution method. It counts as cell-based.
Series [5] relates to Neisseria gonorrhea Lind. In words: gradient-plate agar-dilution method. The series is classed as cell-based.
Series [6] relates to Hemophilus influenzae Brun. In words: gradient-plate agar-dilution method. It counts as cell-based. Particulars: Haemophilus influenzae.
The test system of series [7] is Hemophilus influenzae Dick. In words: gradient-plate agar-dilution method. To be noted: Haemophilus influenzae. The series is classed as cell-based.
Series [8] relates to Hemophilus influenzae 251. Description: gradient-plate agar-dilution method. To be noted: Haemophilus influenzae. The series is classed as cell-based.
Series [9] deals with Hemophilus influenzae 260. In words: gradient-plate agar-dilution method. To be noted: Haemophilus influenzae. The series is classed as cell-based.
The subject of series [10] is Staphylococcus aureus 3055. In words: experimental bacterial infection in mice. To be noted: Staphylococcus aureus, 3055, sc, sc, two doses, challenge 1,260 × LD50 (ip), read-out: ED50 × 2. It counts as in vivo.
For another series, the system named is Peptococcus prevoti. In words: standard agar-dilution test, anaerobic bacteria. The series is classed as cell-based. To be noted: read after 2 hours incubation.
Series [11] deals with Bacteroides fragilis 1877. In words: standard agar-dilution test, anaerobic bacteria. It counts as cell-based. To be noted: Bacteroides fragilis, 1877, 2 h.
The next series has as its system Bacteroides corrodens. Description: standard agar-dilution test, anaerobic bacteria. It counts as cell-based. Particulars: Eikenella corrodens, 2 h.
For series [12], the system named is Fusobacterium necrophorum. In words: standard agar-dilution test, anaerobic bacteria. It counts as cell-based. To be noted: 2 h.
Another series concerns Mycoplasma hyorhinis. Description: in vitro broth-dilution studies, mycoplasma. It counts as cell-based. The text has this:
The minimal inhibitory concentrations (MIC's) of A-40104 factor A; 19,20-dihydro-A-40104 factor A; and the tetraacetyl derivative of A-40104A against various mycoplasma species, as determined by in vitro broth-dilution studies, are summarized in Table IX.

Series [13] has as its system experimental bacterial infections. In words: experimental bacterial infections in mice (general statement). It counts as in vivo. How it is done: When two doses of these compounds were administered to mice in illustrative infections, the activity observed was measured as an ED50 value [effective dose in mg./kg. to protect 50 percent of the test animals; see Warren Wick, et al., J. Bacteriol. 81, 233-235 (1961)].

The subject of a further series is bacteria of Table V. Description: gradient-plate agar-dilution method, series of in vitro tests. It counts as cell-based.

SMILES strings stand for the structures. Values after ≈ are worked out from the molar mass of the structure shown.

Consider `C=CC1(C)CC(OC(=O)CO[C@@H]2OC[C@@H](O)[C@H](O)[C@H]2O)C2(C)C(C)CCC3(CCC(=O)C32)C(C)C1O` (stereo partly drawn) [A-40104 factor A, β,D-xylopyranosyl acetal derivative of pleuromutilin], for which the MIC in series [1] is below 0.5 µg/mL; in [2] it was below 0.5 µg/mL; in series [3], below 0.5 µg/mL; in the series with Streptococcus faecalis, below 0.5 µg/mL; in [4], 0.07 µg/mL (≈ 0.137 µM); in series [5], 0.5 µg/mL (≈ 0.979 µM). Moreover, the MIC in series [6] is 2 µg/mL (≈ 3.92 µM); in [7], 2 µg/mL (≈ 3.92 µM); in series [8], 0.7 µg/mL (≈ 1.37 µM); in [9], 0.7 µg/mL (≈ 1.37 µM); in the series with Peptococcus prevoti, at most 0.5 µg/mL; in series [11] it was 8 µg/mL (≈ 15.7 µM). The figures for the MIC (against Bacteroides corrodens; in [12]) were 8 µg/mL (≈ 15.7 µM) and at most 0.5 µg/mL, respectively. Moreover, in series [10], the median effective dose (ED50) came out at 15.7 mg/kg. For the same compound, in the series on Mycoplasma hyorhinis, the “minimal inhibitory concentration (MIC)” value turned out to be 1.56. Further, in series [13], the “in vivo antimicrobial activity” value is recorded as “have shown in vivo antimicrobial activity”. The comparison with ampicillin entry in the series on bacteria of Table V is on record as “compares favorably with ampicillin”. Further, in the series “solubility” (alcohols such as methanol and ethanol), the solubility in alcohols entry was “soluble in alcohols such as methanol and ethanol”. In the series “solubility” (chloroform), the solubility in chloroform entry is on record as “partially soluble in chloroform”. Besides, the solubility in water result in the series “solubility” (water) is “insoluble in water”.

Values taken from patent publication US4129721A, “A-40104 antibiotics and process for production thereof” (priority 1977, dated 1978).
